Results from patent US6596863B2, “Medical composition containing nitroetheneamine Derivative or salt there of as active constituent” (Ishihara Sangyo Kaisha, Ltd., priority 1998, dated 2003).

Tests used:
human MMP-3 = target: T1, human MMP-3 (Homo sapiens, UniProt P08254); assay: Enzyme inhibition activity against MMP-3 (stromelysin-1), fluorescent peptide substrate NFF-3; format: biochemical; conditions: human MMP-3, substrate NFF-3, 37° C. for 2 hours
T1 construct: purchased Kabushiki Kaisha Yagai Chuo Kenkyusho YU-26003
Description: The inhibition activity against human MMP-3 was measured using a fluorescent peptide substrate MOCAc-Arg-Pro-Lys-Pro-Val-Glu-Nva-Trp—Arg-Lys(Dnp)-NH2[NFF-3, manufactured by Peptide Institute, Inc. (No. 3168-v)] with reference to the method disclosed in a literature (Knight C. G. et al, FEBS Letters, Vol. 296, 263-266, 1992, Nagase H. et al, Journal of Biological Chemistry, Vol. 269, 20952-20957, 1994). Namely, into each well of a Fluoro Nunc plate (96C) white (No. 437842, manufactured by Nunc Co.), 180 μl of a MMP-3 solution (0.0125 unit/ml; No. YU-26003, manufactured by Kabushiki Kaisha Yagai Chuo Kenkyusho, purity: at least 99%), 10 μl of a test materials (the compound of the present invention) dissolved in DMSO and 10 μl of a peptide substrate […] (final concentration: 10 μM) were added and maintained at 37° C. for 2 hours in a dark place. Dilution of the enzyme was carried out by using 50 mM of Tris-HCl (pH 7.5) comprising 0.1M of NaCl, 10 mM of CaCl2, 0.05% Brij 35 and 0.02% of NaN3.
For the MMP-3 enzymatic activity, the amount of the decomposition product after the reaction was quantitatively analyzed as the change in the relative fluorescence intensity at a fluorescence wavelength of 400 nm with an excitation wavelength of 326 nm (using a variable fluorescence plate reader (variable wavelength type) Spectron FL-2575, manufactured by Towa Kagaku K. K.), and the inhibition activity of the test materials against the enzymatic activity was calculated by comparing the relative fluorescence intensities of the inhibitor added group and the non-added group after completion of the reaction.

human MMP-7 = target: T2, human MMP-7 (Homo sapiens, UniProt P09237); assay: Enzyme inhibition activity against MMP-7 (matrilysin), fluorescent peptide substrate NFF-2; format: biochemical; conditions: human MMP-7, substrate NFF-2, 37° C. for 2.5 hours
T2 construct: purchased Kabushiki Kaisha Yagai Chuo Kenkyusho YU-31001
T2 sequence (P09237 95-267): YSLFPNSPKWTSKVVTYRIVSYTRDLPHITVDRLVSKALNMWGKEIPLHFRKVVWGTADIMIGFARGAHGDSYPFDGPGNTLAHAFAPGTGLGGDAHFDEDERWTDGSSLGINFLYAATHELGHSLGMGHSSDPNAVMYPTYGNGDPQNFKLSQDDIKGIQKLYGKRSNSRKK
Description: The inhibition activity against human MMP-7 was measured by the same method as the method for MMP-3, by using a MMP-7 solution (0.025 unit/ml; No. YU-31001, manufactured by Kabushiki Kaisha Yagai Chuo Kenkyusho, purity: at least 99.9%) and a fluorescent peptide substrate MOCAc—Arg-Pro-Lys-Pro-Tyr—Ala-Nva-Trp-Met-Lys(Dnp) -NH2 [NFF-2, No. 3167-v, manufactured by Peptide Institute, Inc.]. The enzymatic reaction was carried out at 37° C. for 2.5 hours in a dark place, and the relative fluorescence intensity was measured at a fluorescence wavelength of 400 nm with an excitation wavelength of 327 nm.

T1 sequence (P08254 100-477): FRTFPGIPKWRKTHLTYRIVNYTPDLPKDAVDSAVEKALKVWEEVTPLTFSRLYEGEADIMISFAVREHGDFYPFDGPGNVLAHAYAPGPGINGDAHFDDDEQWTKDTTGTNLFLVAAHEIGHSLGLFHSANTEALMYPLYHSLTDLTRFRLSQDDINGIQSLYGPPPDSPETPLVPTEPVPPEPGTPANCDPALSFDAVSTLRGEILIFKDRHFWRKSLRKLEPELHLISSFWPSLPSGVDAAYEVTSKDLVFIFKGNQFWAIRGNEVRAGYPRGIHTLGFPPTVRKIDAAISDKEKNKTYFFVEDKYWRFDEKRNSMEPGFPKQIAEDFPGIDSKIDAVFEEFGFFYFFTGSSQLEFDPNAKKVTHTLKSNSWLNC

Row | SMILES | IC50 (human MMP-3) | IC50 (human MMP-7)
1 | CCOCCOc1cc(C(F)(F)F)cc(NNC(=C[N+](=O)[O-])NC)n1 [Compound No. 107] | 22.3 µM | 18.7 µM
2 | CS(=O)(=O)NC(=C[N+](=O)[O-])NNc1cc(C(F)(F)F)cc(Cl)n1 [Compound No. 157, N-(1-(6-chloro-4-trifluoromethyl-2-pyridyl)hydrazino-2-nitroethenyl)methanesulfonamide] | 24.2 µM | 16.5 µM
3 | CCOCCOc1cc(C(F)(F)F)cc(NNC(=C[N+](=O)[O-])NS(C)(=O)=O)n1 [Compound No. 164, N-(1-(6-(2-ethoxyethoxy)-4-trifluoromethyl-2-pyridyl)hydrazino-2-nitroethenyl)methanesulfonamide] | 17.8 µM | 12 µM
